Assay results as given in patent publication US8802597B2, “Herbicidal pyrimidines” (E I du Pont de Nemours and Company, priority 2003, dated 2014).
Like-named read-outs stand apart in the source and are kept apart here.

How the values were obtained:
Type in all cases: in vivo
wild oat (Avena fatua) = test: Test B postemergence; details: Avena fatua, post-emergence
Summary of the method: (§1)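 Following sowing, compounds in a surfactant-bearing non-phytotoxic solvent were applied preemergence; emerged plants 2 to 18 cm high got postemergence treatment concurrently. Evaluation: 13 to 15 days later, greenhouse, 0–100 visual scale.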

[1] = system: blackgrass (Alopecurus myosuroides); test: Test B postemergence; details: Alopecurus myosuroides, post-emergence
Summary of the method: as §1

[2] = system: crabgrass (Digitaria sanguinalis); test: Test B pre/postemergence; details: Digitaria sanguinalis; for pest or weed control at 125 g/ha: 125 g ai/ha; for pest or weed control at 500 g/ha: 500 g ai/ha
Summary of the method: as §1

[3] = system: Surinam grass (Brachiaria decumbens); test: Test B pre/postemergence; details: Urochloa decumbens; for pest or weed control at 125 g/ha: 125 g ai/ha; for pest or weed control at 500 g/ha: 500 g ai/ha
Summary of the method: as §1

[4] = system: barnyardgrass (Echinochloa crus-galli); test: Test B pre/postemergence; details: Echinochloa crus-galli; for pest or weed control at 125 g/ha: 125 g ai/ha; for pest or weed control at 500 g/ha: 500 g ai/ha
Summary of the method: as §1

[5] = system: wheat (Triticum aestivum); test: Test B pre/postemergence; details: Triticum aestivum; for plant injury at 500 g/ha: 500 g ai/ha
Summary of the method: as §1

[6] = system: cocklebur (Xanthium strumarium); test: Test B pre/postemergence; details: Xanthium strumarium; for pest or weed control at 125 g/ha: 125 g ai/ha; for pest or weed control at 500 g/ha: 500 g ai/ha
Summary of the method: as §1

[7] = system: velvetleaf (Abutilon theophrasti); test: Test B pre/postemergence; details: Abutilon theophrasti; for pest or weed control at 125 g/ha: 125 g ai/ha; for pest or weed control at 500 g/ha: 500 g ai/ha
Summary of the method: as §1

[8] = system: giant foxtail (Setaria faberii); test: Test B pre/postemergence; details: Setaria faberi; for pest or weed control at 125 g/ha: 125 g ai/ha; for pest or weed control at 500 g/ha: 500 g ai/ha
Summary of the method: as §1

[9] = system: lambsquarters (Chenopodium album); test: Test B pre/postemergence; details: Chenopodium album; for pest or weed control at 125 g/ha: 125 g ai/ha; for pest or weed control at 500 g/ha: 500 g ai/ha
Summary of the method: as §1

corn (Zea mays) = test: Test B pre/postemergence; details: Zea mays
Summary of the method: as §1

[10] = system: morningglory (Ipomoea coccinea); test: Test B pre/postemergence; details: Ipomoea; for pest or weed control at 125 g/ha: 125 g ai/ha; for pest or weed control at 500 g/ha: 500 g ai/ha
Summary of the method: as §1

[11] = system: pigweed (Amaranthus retroflexus); test: Test B pre/postemergence; details: Amaranthus retroflexus; for pest or weed control at 125 g/ha: 125 g ai/ha; for pest or weed control at 500 g/ha: 500 g ai/ha
Summary of the method: as §1

[12] = system: umbrella sedge (Cyperus difformis); test: Test B flooded paddy test; details: Cyperus difformis, Flood, 1000 g ai/ha; scale 0 to 100; read-out: Plant response rating, Sedge, Umbrella
Summary of the method: (§2)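 Plants were grown to the 2-leaf stage before treatment, then kept in a greenhouse for 13 to 15 days. Injury was rated visually against untreated controls on a 0 to 100 scale, where 0 is no effect and 100 is complete control.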

[13] = system: duck salad (Heteranthera limosa); test: Test B flooded paddy test; details: Heteranthera limosa, Flood, 1000 g ai/ha; scale 0 to 100; read-out: Plant response rating, Ducksalad
Summary of the method: as §2

[14] = system: barnyardgrass (Echinochloa crus-galli); test: Test B flooded paddy test; details: Echinochloa crus-galli, Flood, 1000 g ai/ha; scale 0 (no effect) to 100 (complete control); read-out: Plant response rating, Barnyardgrass
Summary of the method: as §2

rice (Oryza sativa) = test: Test B flooded paddy test; details: Oryza sativa, Flood, 1000 g ai/ha; scale 0 to 100; read-out: Plant response rating, Rice
Summary of the method: as §2

## CNc1nc(C2CC2)nc(C(=O)OC)c1Br [Compound 5]
Wild oat (Avena fatua); 125 g ai/ha, scale 0 to 100 (0 no effect, 100 complete control), read-out: Oat, Wild plant response rating
  pest or weed control at 125 g/ha: 40%
Wild oat (Avena fatua); 500 g ai/ha, scale 0 to 100, read-out: Plant response rating, Oat, Wild
  pest or weed control at 500 g/ha: 60%
[1]; 125 g ai/ha, scale 0 to 100 (0 no effect, 100 complete control), read-out: Blackgrass plant response rating
  pest or weed control at 125 g/ha: 70%
[1]; 500 g ai/ha, scale 0 to 100, read-out: Plant response rating, Blackgrass
  pest or weed control at 500 g/ha: 80%
[2]; post-emergence, Postemergence, scale 0 to 100 (0 no effect, 100 complete control), read-out: Crabgrass plant response rating
  pest or weed control at 125 g/ha: 50%
[2]; post-emergence, Postemergence, scale 0 to 100, read-out: Plant response rating, Crabgrass
  pest or weed control at 500 g/ha: 90%
[2]; pre-emergence, Preemergence, scale 0 to 100 (0 no effect, 100 complete control), read-out: Plant response rating, Crabgrass
  pest or weed control at 125 g/ha: 20%
[2]; pre-emergence, Preemergence, scale 0 to 100 (0 no effect, 100 complete control), read-out: Crabgrass plant response rating
  pest or weed control at 500 g/ha: 70%
[3]; post-emergence, Postemergence, scale 0 to 100 (0 no effect, 100 complete control), read-out: Surinam Grass plant response rating
  pest or weed control at 125 g/ha: 50%
[3]; post-emergence, Postemergence, scale 0 to 100, read-out: Plant response rating, Surinam Grass
  pest or weed control at 500 g/ha: 80%
[3]; pre-emergence, Preemergence, scale 0 to 100 (0 no effect, 100 complete control), read-out: Plant response rating, Surinam Grass
  pest or weed control at 125 g/ha: 0%
[3]; pre-emergence, Preemergence, scale 0 to 100 (0 no effect, 100 complete control), read-out: Surinam Grass plant response rating
  pest or weed control at 500 g/ha: 10%
[4]; post-emergence, Postemergence, scale 0 to 100 (0 no effect, 100 complete control), read-out: Barnyardgrass plant response rating
  pest or weed control at 125 g/ha: 50%
[4]; post-emergence, Postemergence, scale 0 to 100, read-out: Plant response rating, Barnyardgrass
  pest or weed control at 500 g/ha: 90%
[4]; pre-emergence, Preemergence, scale 0 to 100 (0 no effect, 100 complete control), read-out: Plant response rating, Barnyardgrass
  pest or weed control at 125 g/ha: 10%
[4]; pre-emergence, Preemergence, scale 0 to 100 (0 no effect, 100 complete control), read-out: Barnyardgrass plant response rating
  pest or weed control at 500 g/ha: 30%
[5]; post-emergence, Postemergence, 125 g ai/ha, scale 0 to 100 (0 no effect, 100 complete control), read-out: Wheat plant response rating
  plant injury at 125 g/ha: 50%
[5]; post-emergence, Postemergence, scale 0 to 100, read-out: Plant response rating, Wheat
  plant injury at 500 g/ha: 60%
[5]; pre-emergence, Preemergence, scale 0 to 100 (0 no effect, 100 complete control), read-out: Wheat plant response rating
  plant injury at 500 g/ha: 50%
[6]; post-emergence, Postemergence, scale 0 to 100 (0 no effect, 100 complete control), read-out: Cocklebur plant response rating
  pest or weed control at 125 g/ha: 80%
[6]; post-emergence, Postemergence, scale 0 to 100, read-out: Plant response rating, Cocklebur
  pest or weed control at 500 g/ha: 100%
[6]; pre-emergence, Preemergence, scale 0 to 100 (0 no effect, 100 complete control), read-out: Plant response rating, Cocklebur
  pest or weed control at 125 g/ha: 70%
[6]; pre-emergence, Preemergence, scale 0 to 100 (0 no effect, 100 complete control), read-out: Cocklebur plant response rating
  pest or weed control at 500 g/ha: 80%
[7]; post-emergence, Postemergence, scale 0 to 100 (0 no effect, 100 complete control), read-out: Velvetleaf plant response rating
  pest or weed control at 125 g/ha: 70%
[7]; post-emergence, Postemergence, scale 0 to 100, read-out: Plant response rating, Velvetleaf
  pest or weed control at 500 g/ha: 90%
[7]; pre-emergence, Preemergence, scale 0 to 100 (0 no effect, 100 complete control), read-out: Plant response rating, Velvetleaf
  pest or weed control at 125 g/ha: 70%
[7]; pre-emergence, Preemergence, scale 0 to 100 (0 no effect, 100 complete control), read-out: Velvetleaf plant response rating
  pest or weed control at 500 g/ha: 90%
[8]; post-emergence, Postemergence, scale 0 to 100 (0 no effect, 100 complete control), read-out: Foxtail, Giant plant response rating
  pest or weed control at 125 g/ha: 40%
[8]; post-emergence, Postemergence, scale 0 to 100, read-out: Plant response rating, Foxtail, Giant
  pest or weed control at 500 g/ha: 50%
[8]; pre-emergence, Preemergence, scale 0 to 100 (0 no effect, 100 complete control), read-out: Plant response rating, Foxtail, Giant
  pest or weed control at 125 g/ha: 0%
[8]; pre-emergence, Preemergence, scale 0 to 100 (0 no effect, 100 complete control), read-out: Foxtail, Giant plant response rating
  pest or weed control at 500 g/ha: 10%
[9]; post-emergence, Postemergence, scale 0 to 100 (0 no effect, 100 complete control), read-out: Lambsquarters plant response rating
  pest or weed control at 125 g/ha: 100%
[9]; post-emergence, Postemergence, scale 0 to 100, read-out: Plant response rating, Lambsquarters
  pest or weed control at 500 g/ha: 100%
[9]; pre-emergence, Preemergence, scale 0 to 100 (0 no effect, 100 complete control), read-out: Plant response rating, Lambsquarters
  pest or weed control at 125 g/ha: 90%
[9]; pre-emergence, Preemergence, scale 0 to 100 (0 no effect, 100 complete control), read-out: Lambsquarters plant response rating
  pest or weed control at 500 g/ha: 100%
Corn (Zea mays); post-emergence, Postemergence, 125 g ai/ha, scale 0 to 100 (0 no effect, 100 complete control), read-out: Corn plant response rating
  plant injury at 125 g/ha: 30%
Corn (Zea mays); post-emergence, Postemergence, 500 g ai/ha, scale 0 to 100
  Corn plant response rating (crop injury, 0 = no effect, 100 = complete kill) at 500 g/ha: 90%
Corn (Zea mays); pre-emergence, Preemergence, 125 g ai/ha, scale 0 to 100 (0 no effect, 100 complete control)
  Corn plant response rating (crop injury, 0 = no effect, 100 = complete kill) at 125 g/ha: 0%
Corn (Zea mays); pre-emergence, Preemergence, 500 g ai/ha, scale 0 to 100 (0 no effect, 100 complete control), read-out: Corn plant response rating
  plant injury at 500 g/ha: 70%
[10]; post-emergence, Postemergence, scale 0 to 100 (0 no effect, 100 complete control), read-out: Morningglory plant response rating
  pest or weed control at 125 g/ha: 100%
[10]; post-emergence, Postemergence, scale 0 to 100, read-out: Plant response rating, Morningglory
  pest or weed control at 500 g/ha: 100%
[10]; pre-emergence, Preemergence, scale 0 to 100 (0 no effect, 100 complete control), read-out: Plant response rating, Morningglory
  pest or weed control at 125 g/ha: 70%
[10]; pre-emergence, Preemergence, scale 0 to 100 (0 no effect, 100 complete control), read-out: Morningglory plant response rating
  pest or weed control at 500 g/ha: 80%
[11]; post-emergence, Postemergence, scale 0 to 100 (0 no effect, 100 complete control), read-out: Pigweed plant response rating
  pest or weed control at 125 g/ha: 90%
[11]; post-emergence, Postemergence, scale 0 to 100, read-out: Plant response rating, Pigweed
  pest or weed control at 500 g/ha: 100%
[11]; pre-emergence, Preemergence, scale 0 to 100 (0 no effect, 100 complete control), read-out: Plant response rating, Pigweed
  pest or weed control at 125 g/ha: 90%
[11]; pre-emergence, Preemergence, scale 0 to 100 (0 no effect, 100 complete control), read-out: Pigweed plant response rating
  pest or weed control at 500 g/ha: 90%
[12]
  pest or weed control at 1000 g/ha: 90%
[13]
  pest or weed control at 1000 g/ha: 90%
[14]
  pest or weed control at 1000 g/ha: 50%
Rice (Oryza sativa)
  plant injury at 1000 g/ha: 0%
